Assays:
Type-B CCK receptors = target: T1, Type-B CCK receptors (Cavia porcellus, UniProt H0VZC5); experiment: Radioligand binding ([125I]BH-CCK-8) in guinea pig cerebral cortical membrane preparations; settings: cortical membranes, 30° C., 150 minutes, read-out: IC50 (nM) cortex (Type B)
T1 construct: Cortical and pancreatic membranes were prepared as described; from tissue; host or cells: guinea pig cerebral cortex membranes
T1 sequence (H0VZC5 1-426): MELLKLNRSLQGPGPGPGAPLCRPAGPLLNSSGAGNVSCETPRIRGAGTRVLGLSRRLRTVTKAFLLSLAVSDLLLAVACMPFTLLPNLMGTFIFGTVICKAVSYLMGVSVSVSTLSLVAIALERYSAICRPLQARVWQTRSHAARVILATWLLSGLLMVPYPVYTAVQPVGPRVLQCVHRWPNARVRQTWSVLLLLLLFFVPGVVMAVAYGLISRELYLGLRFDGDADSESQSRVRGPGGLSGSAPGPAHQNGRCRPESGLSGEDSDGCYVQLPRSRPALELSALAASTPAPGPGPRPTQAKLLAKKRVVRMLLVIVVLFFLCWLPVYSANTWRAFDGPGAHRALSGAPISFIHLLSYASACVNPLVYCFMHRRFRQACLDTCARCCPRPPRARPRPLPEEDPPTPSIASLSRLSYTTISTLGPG
Protocol: CCK-8 (Asp-Tyr(SO3 H)-Met-Gly-Trp-Met-Asp-Phe-NH2), bestatin and phosphoramidon were purchased from Peptide International (Louisville, Ky.). EGTA, HEPES, BSA were purchased from Sigma Chemical Co. (St. Louis, Mo.). […] Male guinea pigs, 250 to 325 g, were obtained from Scientific Small Animal Laboratory and Farm (Arlington Heights, Ill.). Collagenase, code CLSPA, was purchased from Worthington (Frehold, N.J.).
Cortical and pancreatic membranes were prepared as described (Lin and Miller; J. Pharmacol. Exp. Ther., 1985, 232:775-780). In brief, pancreas and cortex were removed and rinsed with ice-cold saline. Visible fat and connective tissues were removed from the pancreas. Tissues were weighed and homogenized in approximately 25 mL of ice-cold 50 mM Tris-HCl buffer, pH 7.4 at 4° C. with a Brinkman Polytron for 30 seconds, setting 7. The homogenates were centrifuged for 10 minutes at 1075×g and the pellet was discarded. The supernantants were saved and centrifuged at 38,730×g for 20 minutes. The resultant pellets were rehomogenized in 25 mL of 50 mM Tris-HCl buffer with a Teflon-glass homogenizer, 5 up and down strokes. The homogenates were centrifuged again at 38,730×g for 20 minutes. The pellets were then resuspended in 20 mM HEPES, containing 1 mM EGTA, 118 mM NaCl, 4.7 mM KCl, 5 mM MgCl2, 100 μ M bestatin, 3 μM phosphoramidon, pH 7.4 at 22° C. with a Teflon-glass homogenizer, 15 up and down strokes. The resuspension volume used for the cortex was 15 mL per g of original wet weight and 60 mL per g for pancreas.
To 1 mL Skatron polystyrene tubes were added 25 uL of test compounds, 25 uL of [^125 I]BH-CCK8 and 200 uL of membrane suspension. The final BSA concentration was 0.1%. The cortical tissues (source of Type-B CCK receptors) were incubated at 30° C. for 150 minutes and pancreatic tissues (source of Type-A CCK receptors) were incubated at 37° C. for 150 minutes. Incubations were terminated by filtration using a Skatron Cell Harvester and SS32 microfiber filter mats. […] IC50 values were determined from the Hill analysis.

Type-A CCK receptors = target: T2, Type-A CCK receptors (Cavia porcellus, UniProt Q63931); experiment: Radioligand binding ([125I]BH-CCK-8) in guinea pig pancreatic membrane preparations; settings: pancreatic membranes, 37° C., 150 minutes, read-out: IC50 (nM) Pancreas (Type A)
T2 construct: Cortical and pancreatic membranes were prepared as described; from tissue; host or cells: guinea pig pancreas membranes
T2 sequence (Q63931 1-430): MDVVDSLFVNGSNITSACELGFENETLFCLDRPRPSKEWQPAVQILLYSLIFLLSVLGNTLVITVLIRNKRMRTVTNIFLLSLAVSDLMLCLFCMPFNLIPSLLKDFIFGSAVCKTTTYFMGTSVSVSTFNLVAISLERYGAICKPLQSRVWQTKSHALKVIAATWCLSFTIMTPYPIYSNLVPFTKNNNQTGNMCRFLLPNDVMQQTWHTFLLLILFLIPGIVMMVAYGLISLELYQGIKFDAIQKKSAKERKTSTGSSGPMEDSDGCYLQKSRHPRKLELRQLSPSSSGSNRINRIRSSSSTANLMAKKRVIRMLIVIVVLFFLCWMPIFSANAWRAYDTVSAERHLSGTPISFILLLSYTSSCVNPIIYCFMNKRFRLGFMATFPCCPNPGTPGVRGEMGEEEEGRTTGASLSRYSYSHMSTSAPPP

Row | IC50 (Type-B CCK receptors) [nM] | IC50 (Type-A CCK receptors) [nM] | Structure (SMILES)
1 | 8.4 | 1300 | NC(=O)[C@H](Cc1ccccc1)NC(=O)[C@H](CC(=O)O)NC(=O)[C@@H]1CSCCN1C(=O)[C@@H]1Cc2c[nH]c3cccc(c23)CC(=O)N1 [Example 42, Ctp-(1,4-thiazane-3-carbonyl)-Asp-Phe-NH2]
2 | 29.9 | 11500 | NC(=O)[C@H](Cc1ccccc1)NC(=O)[C@H](CC(=O)O)NC(=O)[C@@H]1CCCCN1C(=O)[C@@H]1Cc2c[nH]c3cccc(c23)CC(=O)N1 [Example 43, Ctp-Pip-Asp-Phe-NH2]
3 | 16 | > 10000 | CC(C)C[C@H](NC(=O)[C@@H]1Cc2c[nH]c3cccc(c23)CC(=O)N1)C(=O)N[C@@H](CC(=O)O)C(=O)N/C(=C\c1ccccc1)C(N)=O [Example 14, Ctp-Leu-Asp-(dehydro)Phe-NH2]
4 | 18 | 4770 | CCC[C@@H]1CCN(C(=O)[C@@H]2Cc3c[nH]c4cccc(c34)CC(=O)N2)[C@@H]1C(=O)N[C@@H](CC(=O)O)C(=O)N[C@@H](Cc1ccccc1)C(N)=O [Example 35, Ctp-Cpp-Asp-Phe-NH2]

Source: US5340802A, “Peptide analog type-B CCK receptor ligands” (Abbott Laboratories, priority 1993, dated 1994)
